According to patent US5593984A, “Cephalosporin derivatives” (Yuhan Corporation, priority 1992, dated 1997):
In brackets after ≈: the same amount, converted by molar mass.

Key:
Format in all cases: cell-based
B. subtilis ATCC 6633 = experiment: MIC by agar dilution, B. subtilis ATCC 6633; conditions: Bacillus subtilis, ATCC6633, 17 h; B. subtilis ATCC 6633; agar dilution, Mueller-Hinton agar; read-out: Minimal Inhibitory Concentration (MIC)
Summary of the method: (§1)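 Agar dilution MIC: Mueller-Hinton agar, 2-fold compound series, inoculum 10^6 CFU/ml, 35°-37° C., 17±1 h.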

Staph. aureus ATCC 6538P = experiment: MIC by agar dilution, Staph. aureus ATCC 6538P; conditions: Staphylococcus aureus, ATCC6538P, 17 h; Staph. aureus ATCC 6538P; agar dilution, Mueller-Hinton agar; read-out: Minimal Inhibitory Concentration (MIC)
Summary of the method: as §1

Staph. aureus Smith = experiment: MIC by agar dilution, Staph. aureus Smith; conditions: Staphylococcus aureus, 17 h, Mueller-Hinton agar, read-out: Minimal Inhibitory Concentration (MIC)
Summary of the method: as §1

Staph. aureus C-57 = experiment: MIC by agar dilution, Staph. aureus C-57; conditions: Staphylococcus aureus, C57, 17 h, Mueller-Hinton agar, read-out: Minimal Inhibitory Concentration (MIC)
Summary of the method: as §1

Staph. aureus C-5113 = experiment: MIC by agar dilution, Staph. aureus C-5113; conditions: Staphylococcus aureus, C5113, 17 h, Mueller-Hinton agar, read-out: Minimal Inhibitory Concentration (MIC)
Summary of the method: as §1

Staph. aureus C-5216 = experiment: MIC by agar dilution, Staph. aureus C-5216; conditions: Staphylococcus aureus, C5216, 17 h, Mueller-Hinton agar, read-out: Minimal Inhibitory Concentration (MIC)
Summary of the method: as §1

[1] = system: S. epidermidis ATCC 12228; experiment: MIC by agar dilution, S. epidermidis ATCC 12228; conditions: Staphylococcus epidermidis, ATCC12228, 17 h; S. epidermidis ATCC 12228; agar dilution, Mueller-Hinton agar; read-out: Minimal Inhibitory Concentration (MIC)
Summary of the method: as §1

Ent. aerogenes IFO 12979 = experiment: MIC by agar dilution, Ent. aerogenes IFO 12979; conditions: Klebsiella aerogenes, IFO12979, 17 h, Mueller-Hinton agar, read-out: Minimal Inhibitory Concentration (MIC)
Summary of the method: as §1

Ent. cloacae IFO 13535 = experiment: MIC by agar dilution, Ent. cloacae IFO 13535; conditions: Enterobacter cloacae, IFO13535, 17 h; Ent. cloacae IFO 13535; agar dilution, Mueller-Hinton agar; read-out: Minimal Inhibitory Concentration (MIC)
Summary of the method: as §1

E. coli NIHJ JC-2 = experiment: MIC by agar dilution, E. coli NIHJ JC-2; conditions: Escherichia coli, NIHJJC2, 17 h; E. coli NIHJ JC-2; agar dilution, Mueller-Hinton agar; read-out: Minimal Inhibitory Concentration (MIC)
Summary of the method: as §1

E. coli No. 29 = experiment: MIC by agar dilution, E. coli No. 29; conditions: Escherichia coli, 17 h; E. coli No. 29; agar dilution, Mueller-Hinton agar; read-out: Minimal Inhibitory Concentration (MIC)
Summary of the method: as §1

E. coli DY-1 = experiment: MIC by agar dilution, E. coli DY-1; conditions: Escherichia coli, DY1, 17 h; E. coli DY-1; agar dilution, Mueller-Hinton agar; read-out: Minimal Inhibitory Concentration (MIC)
Summary of the method: as §1

K. pneumoniae NCTC 9632 = experiment: MIC by agar dilution, K. pneumoniae NCTC 9632; conditions: Klebsiella pneumoniae, NCTC9632, 17 h; K. pneumoniae NCTC 9632; agar dilution, Mueller-Hinton agar; read-out: Minimal Inhibitory Concentration (MIC)
Summary of the method: as §1

M. morganii DY-1 = experiment: MIC by agar dilution, M. morganii DY-1; conditions: Morganella morganii, DY1, 17 h; M. morganii DY-1; agar dilution, Mueller-Hinton agar; read-out: Minimal Inhibitory Concentration (MIC)
Summary of the method: as §1

[2] = system: Ps. aeruginosa ATCC 10145; experiment: MIC by agar dilution, Ps. aeruginosa ATCC 10145; conditions: Pseudomonas aeruginosa, ATCC10145, 17 h, Mueller-Hinton agar, read-out: Minimal Inhibitory Concentration (MIC)
Summary of the method: as §1

[3] = system: Ps. aeruginosa NCTC 10490; experiment: MIC by agar dilution, Ps. aeruginosa NCTC 10490; conditions: Pseudomonas aeruginosa, NCTC10490, 17 h, Mueller-Hinton agar, read-out: Minimal Inhibitory Concentration (MIC)
Summary of the method: as §1

Ps. aeruginosa DY-2 = experiment: MIC by agar dilution, Ps. aeruginosa DY-2; conditions: Pseudomonas aeruginosa, DY2, 17 h; Ps. aeruginosa DY-2; agar dilution, Mueller-Hinton agar; read-out: Minimal Inhibitory Concentration (MIC)
Summary of the method: as §1

P. vulgaris NCTC 8313 = experiment: MIC by agar dilution, P. vulgaris NCTC 8313; conditions: Proteus vulgaris, NCTC8313, 17 h; P. vulgaris NCTC 8313; agar dilution, Mueller-Hinton agar; read-out: Minimal Inhibitory Concentration (MIC)
Summary of the method: as §1

Prov. stuartii IFO 12930 = experiment: MIC by agar dilution, Prov. stuartii IFO 12930; conditions: Providencia stuartii, IFO12930, 17 h, Mueller-Hinton agar, read-out: Minimal Inhibitory Concentration (MIC)
Summary of the method: as §1

[4] = system: Ser. marcescens IFO 12648; experiment: MIC by agar dilution, Ser. marcescens IFO 12648; conditions: Serratia marcescens, IFO12648, 17 h; Ser. marcescens IFO 12648; agar dilution, Mueller-Hinton agar; read-out: Minimal Inhibitory Concentration (MIC)
Summary of the method: as §1

Row | Structure (SMILES) | MIC (B. subtilis ATCC 6633) [µg/mL] | MIC (Staph. aureus ATCC 6538P) [µg/mL] | MIC (Staph. aureus Smith) [µg/mL] | MIC (Staph. aureus C-57) [µg/mL] | MIC (Staph. aureus C-5113) [µg/mL] | MIC (Staph. aureus C-5216) [µg/mL] | MIC [1] [µg/mL] | MIC (Ent. aerogenes IFO 12979) [µg/mL] | MIC (Ent. cloacae IFO 13535) [µg/mL] | MIC (E. coli NIHJ JC-2) [µg/mL] | MIC (E. coli No. 29) [µg/mL] | MIC (E. coli DY-1) [µg/mL] | MIC (K. pneumoniae NCTC 9632) [µg/mL] | MIC (M. morganii DY-1) [µg/mL] | MIC [2] [µg/mL] | MIC [3] [µg/mL] | MIC (Ps. aeruginosa DY-2) [µg/mL] | MIC (P. vulgaris NCTC 8313) [µg/mL] | MIC (Prov. stuartii IFO 12930) [µg/mL] | MIC [4] [µg/mL]
1 | CCO/N=C(\C(=O)N[C@@H]1C(=O)N2C(C(=O)[O-])=C(C[n+]3ccn4cccc4c3C)CS[C@H]12)c1csc(N)n1 [Ex. 41, 7-β-[(Z)-2-(2-aminothiazol-4-yl)-2-ethoxyiminoacetamido]-3-(1-methylpyrrolo[1,2-a]pyrazinium-2-yl)methyl-3-cephem-4-carboxylate] | 0.2 (≈ 0.369 µM) | 0.2 (≈ 0.369 µM) | 0.39 (≈ 0.72 µM) | 12.5 (≈ 23.1 µM) | 0.78 (≈ 1.44 µM) | 1.56 (≈ 2.88 µM) | 0.1 (≈ 0.185 µM) | 0.025 (≈ 0.0462 µM) | 0.2 (≈ 0.369 µM) | 0.025 (≈ 0.0462 µM) | 0.012 (≈ 0.0222 µM) | 0.012 (≈ 0.0222 µM) | 0.025 (≈ 0.0462 µM) | 0.025 (≈ 0.0462 µM) | 1.56 (≈ 2.88 µM) | 0.39 (≈ 0.72 µM) | 3.13 (≈ 5.78 µM) | ≤ 0.006 | 0.012 (≈ 0.0222 µM) | 0.05 (≈ 0.0923 µM)
2 | CCO/N=C(\C(=O)N[C@@H]1C(=O)N2C(C(=O)[O-])=C(C[n+]3ccn4c(Br)ccc4c3C)CS[C@H]12)c1csc(N)n1 [Ex. 42, 7-β-[(Z)-2-(2-aminothiazol-4-yl)-2-ethoxyiminoacetamido]-3-(6-bromo-1-methylpyrrolo[1,2-a]pyrazinium-2-yl)methyl-3-cephem-4-carboxylate] | 0.39 (≈ 0.629 µM) | 0.39 (≈ 0.629 µM) | 1.56 (≈ 2.51 µM) | 25 (≈ 40.3 µM) | 1.56 (≈ 2.51 µM) | 3.13 (≈ 5.04 µM) | 0.1 (≈ 0.161 µM) | 0.05 (≈ 0.0806 µM) | 0.78 (≈ 1.26 µM) | 0.2 (≈ 0.322 µM) | 0.05 (≈ 0.0806 µM) | 0.025 (≈ 0.0403 µM) | 0.2 (≈ 0.322 µM) | 0.2 (≈ 0.322 µM) | 6.25 (≈ 10.1 µM) | 3.13 (≈ 5.04 µM) | 25 (≈ 40.3 µM) | 0.025 (≈ 0.0403 µM) | 0.05 (≈ 0.0806 µM) | 0.2 (≈ 0.322 µM)
3 | CO/N=C(\C(=O)N[C@@H]1C(=O)N2C(C(=O)[O-])=C(C[n+]3ccn4c(C#N)ccc4c3C)CS[C@H]12)c1csc(N)n1 [Ex. 43, 7-β-[(Z)-2-(2-aminothiazol-4-yl)-2-methoxyiminoacetamido]-3-(1-methyl-6-cyanopyrrolo[1,2-a]pyrazinium-2-yl)methyl-3-cephem-4-carboxylate] | 0.2 (≈ 0.362 µM) | 0.1 (≈ 0.181 µM) | 0.78 (≈ 1.41 µM) | 12.5 (≈ 22.6 µM) | 1.56 (≈ 2.82 µM) | 0.78 (≈ 1.41 µM) | 0.012 (≈ 0.0217 µM) | 0.012 (≈ 0.0217 µM) | 0.2 (≈ 0.362 µM) | 0.025 (≈ 0.0452 µM) | 0.05 (≈ 0.0905 µM) | 0.012 (≈ 0.0217 µM) | 0.1 (≈ 0.181 µM) | 0.05 (≈ 0.0905 µM) | 0.78 (≈ 1.41 µM) | 0.78 (≈ 1.41 µM) | 12.5 (≈ 22.6 µM) | ≤ 0.006 | 0.012 (≈ 0.0217 µM) | 0.05 (≈ 0.0905 µM)
